From patent US20190307811A1, “METHOD FOR TREATING AIRWAYS DISEASE” (HUDSON INSTITUTE OF MEDICAL RESEARCH, priority 2016, published 2019) come the findings set out here.

Test [1] deals with bleomycin (BLM)-induced model of pulmonary fibrosis. As to the kind of experiment: Interstitial fibrosis, bleomycin-induced pulmonary fibrosis model. The test is classed as in vivo. The following applies: BLM-injured mice, treatment days 22-28. The procedure:
(§1) The following is relevant to Example 10. A bleomycin (BLM)-induced model of pulmonary fibrosis was established in mice (n=49). Mice were intranasally (IN) administered with 20 μg of bleomycin sulphate (Hospira, Melbourne, Victoria, Australia) in 50 μl of saline (equivalent to 400 μg/ml; 25 μl per nare) on days 0 and 7. For control mice (n=7), however, instead of BLM, they were given IN administration (50 μL per mouse) of 0.9% w/v saline on days 0 and 7. All mice were then left untreated for a further two weeks (until day 21).
(§2) On day 22 (1 day following completion of induction of the BLM-induced pulmonary fibrosis model), mice were lightly anaesthetized with isoflurane (Baxter Health Care, NSW, Australia) and held in a semi-supine position while IN administration of the appropriate treatment took place. The following treatments were administered daily or once-weekly to mice, from days 22-28.
(§3) BLM alone (injury control group): a-sub-group of mice (n=7) received 50 μL of phosphate buffered saline (PBS; the vehicle for Pirfenidone, AECs and AEC-derived exosomes; 25 μL per nare) daily, using an automatic pipette from days 22-28,
(§4) Pirfenidone: a separate sub-group of mice (n=7) received 1 mg of Pirfenidone (Tocris Bioscience, Noble Park, Victoria, Australia) per day (equivalent to 50 mg/kg/day) by twice daily oral gavage, from days 22-28. […]

Test [2] has the same test system. In words: Subepithelial ECM/collagen deposition, bleomycin-induced pulmonary fibrosis model. In kind it is in vivo. The following applies: BLM-injured mice, treatment days 22-28. The procedure:
as §1, §2, §3, §4

For test [3] the test system is unchanged. As to the kind of experiment: Lung inflammation score, bleomycin-induced pulmonary fibrosis model. Particulars: BLM-injured mice, treatment days 22-28. The test is classed as in vivo. On the procedure:
as §1, §2, §3, §4

The test system of another test is goblet cells. As to the kind of experiment: Goblet cell metaplasia (ABPAS staining), chronic OVA-induced AAD model. In kind it is in vivo, Balb/c mice. Particulars: OVA-treated mice; OVA alone 4.83±0.20, saline 1.62±0.32. The procedure:
(§5) To assess the individual vs combined effects of MSCs, AECs and RLX (serelaxin) in chronic AAD, a chronic model of ovalbumin (OVA)-induced AAD was established in mice (n=36). Mice were sensitized with two i.p. injections of 10 μg of Grade V chicken egg OVA (Sigma-Aldrich, Mo., USA) and 400 μg of aluminium potassium sulphate adjuvant (alum; AJAX Chemicals, NSW, Australia) in 500 μl of 0.9% w/v normal saline solution (Baxter Health Care, NSW, Australia) on day 0 and day 14. They were then challenged by whole body inhalation exposure (nebulization) to aerosolized OVA (2.5% w/v in 0.9% w/v normal saline) for thirty minutes, three times a week, between days 21 and 63, using an ultrasonic nebulizer (Omron NE-U07; Omron, Kyoto, Japan). Control mice (n=6) were given i.p injections of 500 μl 0.9% w/v saline and nebulized with 0.9% w/v saline instead of OVA.
(§6) On day 64 (1 day following completion of induction of the chronic AAD model), mice were lightly anaesthetized with isoflurane (Baxter Health Care, NSW, Australia) and held in a semisupine position while intranasal administration of the appropriate treatment took place. […]

Test [4] relates to chronic model of ovalbumin (OVA)-induced AAD. In words: Subepithelial collagen deposition (Masson's trichrome), chronic OVA-induced AAD model. In kind it is in vivo, Balb/c mice. Particulars: OVA-treated mice; OVA alone 26.26±1.37, saline 8.07±0.58. The procedure: as §5, §6
The test system is the same in test [5]. In words: Peri-bronchial inflammation score, chronic OVA-induced AAD model. In kind it is in vivo, Balb/c mice. The following applies: scale 0 to 4; OVA-treated mice, intranasal treatment days 64-77; OVA alone 1.70±0.60, saline 0.15±0.40. On the procedure:
Six-to-eight week-old female Balb/c mice were obtained from Monash Animal Services (Monash University, Clayton, Victoria, Australia) and housed under a controlled environment, on a 12 hour light/12 hour dark lighting cycle with free access to water and lab chow (Barastock Stockfeeds, Pakenham, Victoria, Australia). All mice were provided an acclimatization period of 4-5 days before any experimentation.
as §5, with “OVA. […]” for “OVA.”

For another test, the system named is TGF-β1. As to the kind of experiment: Airway epithelial TGF-β1 immunohistochemistry, chronic OVA-induced AAD model. In kind it is in vivo, Balb/c mice. Particulars: relative to saline-treated controls expressed as 1; OVA alone 10.65±0.81. The procedure: (§7) To assess the individual vs combined effects of MSCs, AECs and RLX (serelaxin) in chronic AAD, a chronic model of ovalbumin (OVA)-induced AAD was established in mice (n=36). Mice were sensitized with two i.p. injections of 10 μg of Grade V chicken egg OVA (Sigma-Aldrich, Mo., USA) and 400 μg of aluminium potassium sulphate adjuvant (alum; AJAX Chemicals, NSW, Australia) in 500 μl of 0.9% w/v normal saline solution (Baxter Health Care, NSW, Australia) on day 0 and day 14. […]
(§8) IHC was used to detect TGF-β1 (using a polyclonal antibody; sc-146; Santa Cruz Biotechnology, Santa Cruz, Calif., USA; 1:1000 dilution), α-smooth muscle actin (α-SMA; a marker of myofibroblast differentiation; using a monoclonal antibody; M0851; DAKO Antibodies, Glostrup, Denmark; 1:200 dilution) and thymic stromal lymphopoietin (TSLP; a marker for epithelial damage; using a polyclonal antibody; ABT330; EMD Millipore Corp'. Temecula, Calif., USA; 1:1000 dilution). Primary antibody staining was detected using the DAKO EnVision anti-rabbit or anti-mouse kits and 3,3′-Diaminobenzidine (DAB) chromogen, while negative controls, which were exposed to the EnVision kits in the absence of any primary antibody, were also included. […]

In test [6] the test system is chronic model of ovalbumin (OVA)-induced AAD. In words: Hydroxyproline assay of total lung collagen concentration, chronic OVA-induced AAD model. In kind it is in vivo, Balb/c mice. Particulars: collagen content/dry weight, OVA alone 3.82±0.10, saline 2.84±0.11. The procedure:
as §5, with “OVA. […]” for “OVA.”
The second largest lung lobe from each mouse was processed as previously described (Royce et al. (2009) supra; Royce et al. (2014) supra; Royce et al. (2015) supra) for the measurement of hydroxyproline content, which was determined from a standard curve of purified trans-4-hydroxy-L-proline (Sigma-Aldrich). […]

For test [7] the test system is unchanged. As to the kind of experiment: AHR by invasive plethysmography (methacholine), chronic OVA-induced AAD model. The test is classed as in vivo, Balb/c mice. The following applies: airway resistance to nebulized methacholine; vs OVA group. The procedure:
as §5, with “OVA. […]” for “OVA.”
On day 78 (24 hours after the final intranasal administration of PBS or various treatments detailed), mice were anesthetized with an i.p injection of ketamine 10 mg/kg and xylazine 2 mg/kg BW (in 0.9% w/v saline). […] The airway resistance of each mouse was then measured (reflecting changes in AHR) in response to increasing doses of nebulized acetyl-β-methylcholine chloride (methacholine; Sigma Aldrich, Mo., USA), delivered intratracheally, from 3.125-50 mg/ml over 5 doses, to elicit bronchoconstriction. […]

Test [8] concerns α-SMA-stained myofibroblasts. In words: Subepithelial myofibroblast accumulation (α-SMA IHC), chronic OVA-induced AAD model. The following applies: OVA-treated mice; OVA alone 1.72±0.07, saline 0.44±0.13. The test is classed as in vivo, Balb/c mice. On the procedure: as §7, §8
Test [9] concerns thymic stromal lymphopoietin (TSLP). As to the kind of experiment: TSLP immunohistochemistry (epithelial damage), chronic OVA-induced AAD model. In kind it is in vivo, Balb/c mice. Particulars: OVA-treated mice; OVA alone 4.61±0.53, saline 1.00±0.30. On the procedure:
as §7, §8

The test system of test [10] is chronic model of ovalbumin (OVA)-induced AAD. As to the kind of experiment: Epithelial thickness (Masson's trichrome), chronic OVA-induced AAD model. In kind it is in vivo, Balb/c mice. The following applies: relative to BM length; OVA-treated mice; OVA alone 21.20±0.60, saline 16.89±0.76. On the procedure:
as §5, §6

`Cc1ccc(=O)n(-c2ccccc2)c1` [pirfenidone, Pirfenidone]: the “bleomycin-induced increase in interstitial fibrosis” value in test [1] is recorded as “normalized”. Besides, the “bleomycin-induced increase in subepithelial ECM/collagen deposition” value in test [2] was “no effect”. In [3], the “bleomycin-induced lung inflammation (inflammation score)” value is reported as “only partially reduce”.
Consider Serelaxin [RLX], for which the goblet cell count with goblet cells is 5.08±0.25 goblet cells/100 μm BM length. Also, the “subepithelial collagen (relative to basement membrane length)” value in test [4] amounted to 18.27±2.26 μm. Further, the peri-bronchial inflammation score in test [5] amounted to 1.55±0.83. The “epithelial TGF-β1 expression” value in the test on TGF-β1 amounted to 5.85±1.42. The “total lung collagen concentration” value in [6] is reported as 3.08±0.23%. Also, in [7], the “decrease of AHR” value is recorded as about 50%. The “number of α-SMA-stained myofibroblasts in the subepithelial layer” value in [8] is 1.08±0.10 per 100 μm BM length. Besides, the “number of TSLP-positive cells within the airway epithelium” value in test [9] is reported as 3.14±0.34 per 100 μm of BM length. Further, in [10], the epithelial thickness was 18.19±0.74 μm^2.
